These are literature values, as cited in patent US20070275095A1, “TREATMENT OF INFLAMMATORY, AUTOIMMUNE, OR OTHER DISORDERS, USING AGENTS THAT REDUCE THE SEQUESTERING OF ZINC BY CALPROTECTIN” (priority 2005, published 2007).

In series [1] the test system is calprotectin. To be noted: Oyama et al 1997.
For a further series, the system named is neutrophil cells. Particulars: Oyama et al 1997.
The subject of series [2] is calprotectin. Particulars: zinc binding not measured directly; apoptosis measured (Yui et al 1998 and 2003, Mikami et al 1999).
The subject of series [3] is tumor necrosis factor (TNF). To be noted: same literature reports.
The conditions of series [4]: clinical trials reviewed in Kidd 2002, Kern et al 2004, Esch et al 2004, Sturmey 2005.

`CC(C)c1ccc2oc3nc(N)c(C(=O)O)cc3c(=O)c2c1` [amlexanox]: the “binding to calprotectin molecules in neutrophils” value in the series with calprotectin [1] is “bind to calprotectin molecules contained in the neutrophils”. Moreover, the “suppression of calprotectin release by neutrophils” value with neutrophil cells was “impedes and suppresses the release of calprotectin by the neutrophils”.
Regarding `O=C1N[C@@H]2C(=C[C@H](O)[C@@H](O)[C@H]2O)c2cc3c(c(O)c21)OCO3` [lycoricidinol], the “inhibition of zinc binding by calprotectin” value in the series with calprotectin [2] is given as “appear to inhibit zinc binding by calprotectin, to some extent”. Besides, the “inhibition of tumor necrosis factor (TNF)” value in series [3] is “appear to inhibit”.
On to `O[C@H]1[C@H]2c3cc4c(cc3CN3CCC(=C[C@@H]1O)[C@H]23)OCO4` [lycorine], for which, in the series with calprotectin [2], the “inhibition of zinc binding by calprotectin” value is “appear to inhibit zinc binding by calprotectin, to some extent”. Further, the “inhibition of tumor necrosis factor (TNF)” value in series [3] was “appear to inhibit”.
Consider secretin, for which the “clinical trial outcome in autism” value in series [4] was “mainly negative results”.
